Assay results published in ChEMBL document CHEMBL5380810, “Scaffold Hybrid of the Natural Product Tanshinone I with Piperidine for the Discovery of a Potent NLRP3 Inflammasome Inhibitor” (J Med Chem, 2023).
≈ marks a conversion by molar mass, not a printed value. Calls of active or inactive are those of the source. The rule behind the calls is not given here.

Key:
Peritoneal macrophage [1] = assay: Antiinflammatory activity against LPS-stimulated mouse peritoneal macrophage assessed as TNF-alpha level at 2 uM treated for 3 hrs followed by ATP addition measured after 30 mins by ELISA method relative to control; format: functional; details: time 3.5 hrs
Peritoneal macrophage [2] = assay: Cytotoxicity against mouse peritoneal macrophages at 4 uM incubated for 3.5 hrs by MTT assay; format: toxicity, cell-based
Peritoneal macrophage [3] = assay: Antiinflammatory activity against LPS-stimulated mouse peritoneal macrophage assessed as IL-6 level at 2 uM treated for 3 hrs followed by ATP addition measured after 30 mins by ELISA method relative to control; format: functional; details: time 3.5 hrs
Peritoneal macrophage [4] = assay: Antiinflammatory activity against LPS-stimulated mouse peritoneal macrophage assessed as IL-1beta level at 2 uM treated for 3 hrs followed by ATP addition measured after 30 mins by ELISA method; format: functional, cell-based; details: time 3.5 hrs
Peritoneal macrophage [5] = assay: Effect on pro-IL-1beta expression in ATP-induced LPS-primed mouse peritoneal macrophage cells at 2 uM treated for 3 hrs followed by ATP addition measured after 30 mins by Western blot analysis; format: functional, cell-based; details: time 3.5 hrs
Peritoneal macrophage [6] = assay: Antiinflammatory activity against LPS-stimulated mouse peritoneal macrophage assessed as IL-6 level at 2 uM treated for 3 hrs followed by ATP addition measured after 30 mins by ELISA method; format: functional, cell-based; details: time 3.5 hrs
[7] = biological target: NACHT, LRR and PYD domains-containing protein 3 (Mus musculus) (UniProt Q8R4B8); assay: Inhibition of NLRP3 inflammasome activation in […] LPS-primed mouse peritoneal macrophage cells assessed as inhibition of IL-1beta secretion at 2 uM treated for 3 hrs followed by nigericin addition measured after 30 mins by ELISA method; format: cell-based; details: time 3.5 hrs
Mus musculus [8] = assay: Antiinflammatory activity in septic C57BL/6 mouse model assessed as reduction in LPS-induced granulocyte count at 50 mg/kg, ip pretreated for 42 hrs followed by LPS injection measured after 6 hrs by H and E staining based analysis; format: functional, organism-based; details: time 48.0 hrs
Peritoneal macrophage [9] = assay: Effect on pro-caspase-1 expression in LPS-stimulated mouse peritoneal macrophage at 2 uM treated for 3 hrs followed by ATP addition measured after 30 mins by Western blot analysis; format: functional, cell-based; details: time 3.5 hrs
Peritoneal macrophage [10] = assay: Effect on pro-IL-1beta expression in LPS-stimulated mouse peritoneal macrophage at 2 uM treated for 3 hrs followed by ATP addition measured after 30 mins by Western blot analysis; format: functional, cell-based; details: time 3.5 hrs
Peritoneal macrophage [11] = assay: Effect on pro-caspase-1 expression in ATP-induced LPS-primed mouse peritoneal macrophage cells at 2 uM treated for 3 hrs followed by ATP addition measured after 30 mins by Western blot analysis; format: functional, cell-based; details: time 3.5 hrs
Peritoneal macrophage [12] = assay: Effect on ASC expression in ATP-induced LPS-primed mouse peritoneal macrophage cells at 2 uM treated for 3 hrs followed by ATP addition measured after 30 mins by Western blot analysis; format: functional, cell-based; details: time 3.5 hrs
[13] = biological target: NACHT, LRR and PYD domains-containing protein 3 (Mus musculus) (UniProt Q8R4B8); assay: Inhibition of NLRP3 inflammasome activation in […] LPS-primed mouse peritoneal macrophage cells assessed as inhibition of IL-1beta secretion at 2 uM treated for 3 hrs followed by MSU addition measured after 30 mins by ELISA method; format: cell-based; details: time 3.5 hrs
Mus musculus [14] = assay: Antiinflammatory activity in septic C57BL/6 mouse model assessed as decrease in LPS-induced IL-6 release at 50 mg/kg, ip pretreated for 42 hrs followed by LPS injection measured after 6 hrs by ELISA method; format: functional, organism-based; details: time 48.0 hrs
Mus musculus [15] = assay: Antiinflammatory activity in septic C57BL/6 mouse model assessed as decrease in LPS-induced IL-1beta release at 50 mg/kg, ip pretreated for 42 hrs followed by LPS injection measured after 6 hrs by ELISA method; format: functional, organism-based; details: time 48.0 hrs
Peritoneal macrophage [16] = assay: Antiinflammatory activity against LPS-stimulated mouse peritoneal macrophage assessed as inhibition of IL-1beta secretion at 1 uM treated for 3 hrs followed by ATP addition measured after 30 mins by ELISA method; format: functional, cell-based; details: time 3.5 hrs
Mus musculus [17] = assay: Antiinflammatory activity in septic C57BL/6 mouse model assessed as reduction in LPS-induced alveolar wall thickening at 50 mg/kg, ip pretreated for 42 hrs followed by LPS injection measured after 6 hrs by H and E staining based analysis; format: functional, organism-based; details: time 48.0 hrs
[18] = biological target: NACHT, LRR and PYD domains-containing protein 3 (Mus musculus) (UniProt Q8R4B8); assay: Inhibition of NLRP3 inflammasome activation in LPS-stimulated mouse peritoneal macrophage assessed as inhibition of IL-1beta secretion at 2 uM treated for 3 hrs followed by ATP addition measured after 30 mins by Western blot analysis relative to control; format: cell-based; details: time 3.5 hrs
Mus musculus [19] = assay: Antiinflammatory activity in septic C57BL/6 mouse model assessed as reduction in LPS-induced inflammatory infiltration at 50 mg/kg, ip pretreated for 42 hrs followed by LPS injection measured after 6 hrs by H and E staining based analysis; format: functional, organism-based; details: time 48.0 hrs
[20] = biological target: NACHT, LRR and PYD domains-containing protein 3 (Mus musculus) (UniProt Q8R4B8); assay: Inhibition of NLRP3 inflammasome activation in LPS-stimulated mouse peritoneal macrophage assessed as inhibition of caspase-1 secretion at 2 uM treated for 3 hrs followed by ATP addition measured after 30 mins by Western blot analysis relative to control; format: cell-based; details: time 3.5 hrs
Peritoneal macrophage [21] = assay: Effect on NLRP3 expression in ATP-induced LPS-primed mouse peritoneal macrophage cells at 2 uM treated for 3 hrs followed by ATP addition measured after 30 mins by Western blot analysis; format: functional, cell-based; details: time 3.5 hrs
[22] = biological target: NACHT, LRR and PYD domains-containing protein 3 (Mus musculus) (UniProt Q8R4B8); assay: Inhibition of NLRP3 inflammasome activation in ATP-induced LPS-primed mouse BMDM cells assessed as inhibition of IL-1beta secretion at 1 uM treated for 3 hrs followed by ATP addition measured after 30 mins by ELISA method; format: cell-based; details: time 3.5 hrs
[23] = biological target: NACHT, LRR and PYD domains-containing protein 3 (Homo sapiens) (UniProt Q96P20); assay: Inhibition of NLRP3 (unknown origin) degradation at 10 uM incubated for 5 hrs followed by heat treatment for 3 mins by CETSA assay; details: time 5.03 hrs
Peritoneal macrophage [24] = assay: Antiinflammatory activity against LPS-stimulated mouse peritoneal macrophage assessed as inhibition of IL-1beta secretion treated for 3 hrs followed by ATP addition measured after 30 mins by ELISA method; format: functional, cell-based
[25] = biological target: NACHT, LRR and PYD domains-containing protein 3 (Mus musculus, UniProt Q8R4B8); assay: Binding affinity to CMS sensor chip immobilized His-SUMO-tagged mouse NLRP3 expressed in Escherichia coli assessed as dissociation constant by SPR analysis
[26] = Metabolic stability in mouse liver microsomes assessed as half life at 20 uM measured upto 120 mins in presence of NADPH by LC-MS/MS analysis; format: ADME, Microsome
[27] = Metabolic stability in human liver microsomes assessed as half life at 20 uM measured upto 120 mins in presence of NADPH by LC-MS/MS analysis; format: ADME, Microsome
[28] = Metabolic stability in mouse liver microsomes assessed as intrinsic clearance at 20 uM measured upto 120 mins in presence of NADPH by LC-MS/MS analysis; format: ADME, Microsome; details: read-out: CLH
Peritoneal macrophage [29] = assay: Antiinflammatory activity against LPS-stimulated mouse peritoneal macrophage assessed as IL-1beta level at 2 uM treated for 3 hrs followed by ATP addition measured after 30 mins by ELISA method relative to control; format: functional; details: time 3.5 hrs
[30] = Metabolic stability in human liver microsomes assessed as intrinsic clearance at 20 uM measured upto 120 mins in presence of NADPH by LC-MS/MS analysis; format: ADME, Microsome; details: read-out: CLH
[31] = Aqueous solubility of compound incubated for 24 hrs by HPLC analysis; format: physicochemical; details: buffer
Peritoneal macrophage [32] = assay: Antiinflammatory activity against LPS-stimulated mouse peritoneal macrophage assessed as TNF-alpha level at 2 uM treated for 3 hrs followed by ATP addition measured after 30 mins by ELISA method; format: functional, cell-based; details: time 3.5 hrs

Sequence of NACHT, LRR and PYD domains-containing protein 3 (Mus musculus) (Q8R4B8 whole entry, the tested form may be a part): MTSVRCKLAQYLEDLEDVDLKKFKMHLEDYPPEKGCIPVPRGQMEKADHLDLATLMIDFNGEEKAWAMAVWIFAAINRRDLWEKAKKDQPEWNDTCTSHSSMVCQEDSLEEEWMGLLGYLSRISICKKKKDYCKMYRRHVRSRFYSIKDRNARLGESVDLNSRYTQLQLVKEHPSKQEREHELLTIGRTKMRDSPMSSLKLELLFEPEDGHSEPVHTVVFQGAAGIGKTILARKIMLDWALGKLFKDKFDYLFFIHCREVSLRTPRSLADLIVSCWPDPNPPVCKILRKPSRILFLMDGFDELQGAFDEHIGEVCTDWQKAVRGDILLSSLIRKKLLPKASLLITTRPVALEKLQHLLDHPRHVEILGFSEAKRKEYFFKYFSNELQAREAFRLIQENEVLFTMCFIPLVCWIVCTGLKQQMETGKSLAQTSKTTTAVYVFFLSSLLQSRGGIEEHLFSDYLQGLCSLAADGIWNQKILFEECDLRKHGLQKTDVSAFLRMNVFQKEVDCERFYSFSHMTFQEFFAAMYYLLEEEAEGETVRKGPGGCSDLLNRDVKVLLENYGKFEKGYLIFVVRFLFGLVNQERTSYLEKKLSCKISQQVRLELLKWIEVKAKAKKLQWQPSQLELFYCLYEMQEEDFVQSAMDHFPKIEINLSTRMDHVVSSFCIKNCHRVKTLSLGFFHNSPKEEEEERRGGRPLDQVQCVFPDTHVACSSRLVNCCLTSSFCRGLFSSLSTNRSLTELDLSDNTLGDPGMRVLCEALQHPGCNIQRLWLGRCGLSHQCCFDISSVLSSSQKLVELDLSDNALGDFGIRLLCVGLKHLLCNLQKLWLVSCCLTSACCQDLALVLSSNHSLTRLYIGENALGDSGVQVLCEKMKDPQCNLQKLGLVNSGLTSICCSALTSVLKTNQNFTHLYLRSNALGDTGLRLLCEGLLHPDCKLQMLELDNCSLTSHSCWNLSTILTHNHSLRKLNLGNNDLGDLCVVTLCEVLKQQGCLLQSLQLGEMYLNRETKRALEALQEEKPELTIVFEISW
Sequence of NACHT, LRR and PYD domains-containing protein 3 (Homo sapiens) (Q96P20 whole entry, the tested form may be a part): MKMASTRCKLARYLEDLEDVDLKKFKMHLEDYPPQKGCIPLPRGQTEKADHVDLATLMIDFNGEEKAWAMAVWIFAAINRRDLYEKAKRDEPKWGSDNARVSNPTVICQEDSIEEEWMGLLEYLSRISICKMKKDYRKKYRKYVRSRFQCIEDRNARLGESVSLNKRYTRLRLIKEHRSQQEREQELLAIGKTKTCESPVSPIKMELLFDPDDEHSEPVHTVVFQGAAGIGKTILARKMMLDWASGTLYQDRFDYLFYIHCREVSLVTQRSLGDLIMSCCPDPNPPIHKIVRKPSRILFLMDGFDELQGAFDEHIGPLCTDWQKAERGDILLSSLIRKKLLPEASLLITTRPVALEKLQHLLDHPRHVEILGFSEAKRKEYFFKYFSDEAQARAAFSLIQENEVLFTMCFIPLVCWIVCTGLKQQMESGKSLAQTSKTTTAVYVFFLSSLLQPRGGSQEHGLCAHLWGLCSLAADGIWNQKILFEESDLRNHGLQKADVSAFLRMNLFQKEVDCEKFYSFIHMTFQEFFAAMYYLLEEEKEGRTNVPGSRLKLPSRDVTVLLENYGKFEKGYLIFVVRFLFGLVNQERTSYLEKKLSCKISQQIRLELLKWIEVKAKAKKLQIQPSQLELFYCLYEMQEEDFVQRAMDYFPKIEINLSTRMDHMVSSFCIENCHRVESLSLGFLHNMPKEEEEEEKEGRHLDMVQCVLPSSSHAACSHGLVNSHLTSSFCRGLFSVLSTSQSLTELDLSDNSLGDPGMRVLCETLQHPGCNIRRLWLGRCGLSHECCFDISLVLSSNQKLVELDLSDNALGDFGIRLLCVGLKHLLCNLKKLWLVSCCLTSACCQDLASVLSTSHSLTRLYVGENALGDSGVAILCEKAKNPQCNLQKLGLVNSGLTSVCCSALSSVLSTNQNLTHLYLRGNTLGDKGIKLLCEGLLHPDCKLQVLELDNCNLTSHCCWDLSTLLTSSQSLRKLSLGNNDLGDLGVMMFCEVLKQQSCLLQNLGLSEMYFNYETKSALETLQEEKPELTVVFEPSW
Sequence of NACHT, LRR and PYD domains-containing protein 3 (Q8R4B8 whole entry, the tested form may be a part): as the sequence (Q8R4B8 whole entry, the tested form may be a part) above

## Cc1coc2c1C(=O)C(=O)c1c-2ccc2c1CCCC2(C)C [TANSHINONE IIA]
Peritoneal macrophage [1]
  Activity: 19%
Peritoneal macrophage [2]
  Activity: Non-Toxic
Peritoneal macrophage [3]
  Activity: 16%
Peritoneal macrophage [4]
  Activity: inactive

## Cc1cccc2c3c(ccc12)-c1oc2c(c1C(=O)C3=O)CCN(CCO)C2 [listing 1 of 2 here]
Peritoneal macrophage [5]
  Activity: inactive
Peritoneal macrophage [6]
  Activity: inactive
[7]
  inhibition: Active
Mus musculus [8]
  Activity: Active
Peritoneal macrophage [9]
  Activity: inactive
Peritoneal macrophage [10]
  Activity: inactive
Peritoneal macrophage [11]
  Activity: inactive
Peritoneal macrophage [12]
  Activity: inactive
[13]
  inhibition: Active
Mus musculus [14]
  Activity: Active
Mus musculus [15]
  Activity: Active
Peritoneal macrophage [16]
  inhibition: Active
Mus musculus [17]
  Activity: Active
[18]
  inhibition: 100%
Mus musculus [19]
  Activity: Active
[20]
  inhibition: 100%
Peritoneal macrophage [21]
  Activity: inactive
[22]
  inhibition: Active

## Cc1cccc2c3c(ccc12)-c1oc2c(c1C(=O)C3=O)CCN(CCCN1CCOCC1)C2 [listing 1 of 2 here]
Peritoneal macrophage [5]
  Activity: inactive
[7]
  inhibition: Active
Mus musculus [8]
  Activity: Active
Peritoneal macrophage [9]
  Activity: inactive
Peritoneal macrophage [10]
  Activity: inactive
Peritoneal macrophage [11]
  Activity: inactive
Peritoneal macrophage [12]
  Activity: inactive
[13]
  inhibition: Active
Mus musculus [14]
  Activity: Active
Mus musculus [15]
  Activity: Active
Peritoneal macrophage [16]
  inhibition: Active
Mus musculus [17]
  Activity: Active
[18]
  inhibition: 100%
Mus musculus [19]
  Activity: Active
[20]
  inhibition: 100%
[23]
  inhibition: Active
Peritoneal macrophage [21]
  Activity: inactive
[22]
  inhibition: Active

## Cc1cccc2c3c(ccc12)-c1oc2c(c1C(=O)C3=O)CCN(CCCN1CCOCC1)C2 [listing 2 of 2 here]
Peritoneal macrophage [24]
  IC50: 131 nM
[25]
  Kd: 5870 nM
Peritoneal macrophage [1]
  Activity: 41%
[26]
  half-life at 20 µM: 3.04 h
Peritoneal macrophage [2]
  Activity: Non-Toxic
[27]
  half-life at 20 µM: 14.4 h
[28]
  microsomal CLint at 20 µM: 7.6 µL/min/mg
Peritoneal macrophage [29]
  Activity: 97%
[30]
  microsomal CLint at 20 µM: 1.6 µL/min/mg
[31]
  solubility: 0.03 µg/mL (≈ 0.0675 µM)

## CCN1CCc2c(oc3c2C(=O)C(=O)c2c-3ccc3c(C)cccc23)C1
Peritoneal macrophage [6]
  Activity: inactive
Peritoneal macrophage [32]
  Activity: inactive
Peritoneal macrophage [2]
  Activity: Non-Toxic
Peritoneal macrophage [29]
  Activity: 67%

## Cc1coc2c1C(=O)C(=O)c1c-2ccc2c(C)cccc12 [TANSHINONE I]
Peritoneal macrophage [6]
  Activity: inactive
Peritoneal macrophage [1]
  Activity: 55%
[26]
  half-life at 20 µM: 0.352 h
Peritoneal macrophage [2]
  Activity: Non-Toxic
[27]
  half-life at 20 µM: 0.0795 h
[28]
  microsomal CLint at 20 µM: 65.6 µL/min/mg
Peritoneal macrophage [29]
  Activity: 69%
[30]
  microsomal CLint at 20 µM: 290 µL/min/mg

## Cc1cccc2c3c(ccc12)-c1oc2c(c1C(=O)C3=O)CCN(CCN1CCCCC1)C2
Peritoneal macrophage [6]
  Activity: inactive
Peritoneal macrophage [32]
  Activity: inactive
Peritoneal macrophage [2]
  Activity: Non-Toxic
Peritoneal macrophage [29]
  Activity: 41%

## Cc1cccc2c3c(ccc12)-c1oc2c(c1C(=O)C3=O)CCN(CCO)C2 [listing 2 of 2 here]
Peritoneal macrophage [24]
  IC50: 114 nM
Peritoneal macrophage [1]
  Activity: 40%
[26]
  half-life at 20 µM: 3.03 h
Peritoneal macrophage [2]
  Activity: Non-Toxic
[27]
  half-life at 20 µM: 11.6 h
[28]
  microsomal CLint at 20 µM: 7.64 µL/min/mg
Peritoneal macrophage [3]
  Activity: 7%
Peritoneal macrophage [29]
  Activity: 96%
[30]
  microsomal CLint at 20 µM: 2 µL/min/mg
[31]
  solubility: 0.34 µg/mL (≈ 0.941 µM)

## Cc1cccc2c3c(ccc12)-c1oc2c(c1C(=O)C3=O)CCN(CCN1CCCC1)C2
Peritoneal macrophage [6]
  Activity: inactive
Peritoneal macrophage [32]
  Activity: inactive
Peritoneal macrophage [2]
  Activity: Non-Toxic
Peritoneal macrophage [29]
  Activity: 73%

## Cc1cccc2c3c(ccc12)-c1oc2c(c1C(=O)C3=O)CCN([C@H](CO)CCCO)C2 [listing 1 of 2 here]
Peritoneal macrophage [24]
  IC50: 65 nM
Peritoneal macrophage [1]
  Activity: 41%
[26]
  half-life at 20 µM: 6.08 h
Peritoneal macrophage [2]
  Activity: Non-Toxic
[27]
  half-life at 20 µM: 3.73 h
[28]
  microsomal CLint at 20 µM: 3.8 µL/min/mg
Peritoneal macrophage [3]
  Activity: 10%
Peritoneal macrophage [29]
  Activity: 99%
[30]
  microsomal CLint at 20 µM: 6.2 µL/min/mg
[31]
  solubility: 0.45 µg/mL (≈ 1.07 µM)

## Cc1cccc2c3c(ccc12)-c1oc2c(c1C(=O)C3=O)CCN([C@H](CO)CCCO)C2 [listing 2 of 2 here]
Peritoneal macrophage [5]
  Activity: inactive
[7]
  inhibition: Active
Mus musculus [8]
  Activity: Active
Peritoneal macrophage [9]
  Activity: inactive
Peritoneal macrophage [10]
  Activity: inactive
Peritoneal macrophage [11]
  Activity: inactive
Peritoneal macrophage [12]
  Activity: inactive
[13]
  inhibition: Active
Mus musculus [14]
  Activity: Active
Mus musculus [15]
  Activity: Active
Peritoneal macrophage [16]
  inhibition: Active
Mus musculus [17]
  Activity: Active
[18]
  inhibition: 100%
Mus musculus [19]
  Activity: Active
[20]
  inhibition: 100%
Peritoneal macrophage [21]
  Activity: inactive
[22]
  inhibition: Active
